Assay results reported in ChEMBL document CHEMBL5055644, “Cysteine derivatives as acetyl lysine mimics to inhibit zinc-dependent histone deacetylases for treating cancer” (Eur J Med Chem, 2021).
The source made the active and inactive calls. No cut-off for these calls is given here.

Legend:
[1] = Half life in human liver microsomes; assay type: ADME, Microsome
[2] = molecular target: T1, Protein deacetylase HDAC6 (Homo sapiens) (UniProt Q9UBN7); test: Inhibition of HDAC6 in human K562 cells assessed as increase in alpha tubulin acetylation at 10 uM measured after 8 hrs by Western blot analysis; assay type: cell-based
T1 sequence (whole entry): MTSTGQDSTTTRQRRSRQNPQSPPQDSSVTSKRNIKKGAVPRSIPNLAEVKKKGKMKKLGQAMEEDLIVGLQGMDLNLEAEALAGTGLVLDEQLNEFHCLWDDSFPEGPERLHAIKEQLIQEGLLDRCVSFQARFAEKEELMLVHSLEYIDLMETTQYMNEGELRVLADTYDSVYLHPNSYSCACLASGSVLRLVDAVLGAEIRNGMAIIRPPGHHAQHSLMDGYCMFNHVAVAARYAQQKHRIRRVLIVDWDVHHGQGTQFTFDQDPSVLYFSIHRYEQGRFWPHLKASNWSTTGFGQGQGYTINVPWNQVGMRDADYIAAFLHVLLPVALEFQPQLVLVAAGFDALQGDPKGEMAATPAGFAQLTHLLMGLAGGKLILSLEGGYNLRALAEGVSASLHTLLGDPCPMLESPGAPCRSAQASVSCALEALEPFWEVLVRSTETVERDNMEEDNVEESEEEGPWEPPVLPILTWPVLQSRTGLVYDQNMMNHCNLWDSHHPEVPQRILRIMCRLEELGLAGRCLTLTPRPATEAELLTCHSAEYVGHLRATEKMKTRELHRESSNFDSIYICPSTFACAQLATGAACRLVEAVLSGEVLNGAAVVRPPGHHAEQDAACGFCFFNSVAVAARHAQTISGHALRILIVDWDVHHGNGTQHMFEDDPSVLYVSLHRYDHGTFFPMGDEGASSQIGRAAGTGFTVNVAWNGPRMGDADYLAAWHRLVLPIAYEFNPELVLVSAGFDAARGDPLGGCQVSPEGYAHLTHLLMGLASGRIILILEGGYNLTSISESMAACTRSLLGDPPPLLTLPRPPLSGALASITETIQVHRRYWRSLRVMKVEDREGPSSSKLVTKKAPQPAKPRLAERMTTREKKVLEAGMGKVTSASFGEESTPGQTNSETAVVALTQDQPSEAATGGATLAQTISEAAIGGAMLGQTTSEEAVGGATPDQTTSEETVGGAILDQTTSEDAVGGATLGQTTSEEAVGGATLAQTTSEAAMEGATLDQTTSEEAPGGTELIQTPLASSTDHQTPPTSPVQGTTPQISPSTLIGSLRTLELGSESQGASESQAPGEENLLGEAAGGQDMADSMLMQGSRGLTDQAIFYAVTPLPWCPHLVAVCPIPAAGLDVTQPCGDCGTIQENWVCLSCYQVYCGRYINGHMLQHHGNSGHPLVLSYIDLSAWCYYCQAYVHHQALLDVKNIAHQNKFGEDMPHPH

[3] = Half life in mouse liver microsomes; assay type: ADME, Microsome
HeLa = test: cells; assay type: functional; conditions: Homo sapiens, time 48 hrs
Description: Antiproliferative activity against human HeLa cells assessed as inhibition of cell proliferation incubated for 48 hrs by CCK8 assay

K562 = test: cells; assay type: functional; conditions: Homo sapiens, time 48 hrs
Description: Antiproliferative activity against human K562 cells assessed as inhibition of cell proliferation incubated for 48 hrs by CCK8 assay

Histone deacetylase 7 = molecular target: T2, Histone deacetylase 7 (Homo sapiens, UniProt Q8WUI4); test: Inhibition of human N-terminal GST tagged HDAC7 (518 to end residues) expressed in baculovirus infected Sf9 insect cells using Boc-Lys(acetyl)-AMC as fluorogenic substrate measured after 1 hr by flourescence plate reader method
T2 sequence (Q8WUI4 whole entry): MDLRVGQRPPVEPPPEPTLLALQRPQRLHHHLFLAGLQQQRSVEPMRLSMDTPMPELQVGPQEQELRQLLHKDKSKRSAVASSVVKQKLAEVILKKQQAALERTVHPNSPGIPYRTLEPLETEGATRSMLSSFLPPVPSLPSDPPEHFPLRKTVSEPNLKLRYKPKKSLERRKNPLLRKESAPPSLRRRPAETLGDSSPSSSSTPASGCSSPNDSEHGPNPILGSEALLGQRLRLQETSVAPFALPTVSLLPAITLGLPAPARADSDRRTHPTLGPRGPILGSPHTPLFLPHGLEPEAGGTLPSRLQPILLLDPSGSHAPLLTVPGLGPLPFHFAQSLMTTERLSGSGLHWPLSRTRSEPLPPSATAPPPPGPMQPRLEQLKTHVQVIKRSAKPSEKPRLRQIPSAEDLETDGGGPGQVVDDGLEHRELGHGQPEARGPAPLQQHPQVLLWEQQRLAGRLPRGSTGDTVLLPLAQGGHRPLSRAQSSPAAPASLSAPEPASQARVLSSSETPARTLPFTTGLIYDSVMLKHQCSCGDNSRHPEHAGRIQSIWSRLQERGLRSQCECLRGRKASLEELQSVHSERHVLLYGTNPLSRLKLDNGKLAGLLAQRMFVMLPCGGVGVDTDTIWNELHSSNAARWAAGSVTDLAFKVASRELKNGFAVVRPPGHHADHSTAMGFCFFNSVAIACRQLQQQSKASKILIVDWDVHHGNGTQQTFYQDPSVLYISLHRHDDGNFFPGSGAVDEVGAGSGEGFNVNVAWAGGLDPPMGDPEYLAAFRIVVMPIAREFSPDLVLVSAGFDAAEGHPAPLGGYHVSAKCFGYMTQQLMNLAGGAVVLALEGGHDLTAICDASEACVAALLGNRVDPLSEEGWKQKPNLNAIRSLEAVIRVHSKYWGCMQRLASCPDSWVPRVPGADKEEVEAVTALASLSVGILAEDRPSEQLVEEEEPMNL

Histone deacetylase = test: Inhibition of HDAC in human HeLa nuclear extract using Boc-Lys(acetyl)-AMC as fluorogenic substrate measured after 1 hr by flourescence plate reader method; assay type: subcellular, Nucleus
HepG2 = test: cells; assay type: functional; conditions: Homo sapiens, time 48 hrs
Description: Antiproliferative activity against human HepG2 cells assessed as inhibition of cell proliferation incubated for 48 hrs by CCK8 assay

Histone deacetylase 5 = Histone deacetylase 5 (Homo sapiens, UniProt Q9UQL6); test: Inhibition of human HDAC5 using Boc-Lys(acetyl)-AMC as fluorogenic substrate measured after 1 hr by flourescence plate reader method
Histone deacetylase 4 = Histone deacetylase 4 (Homo sapiens, UniProt P56524); test: Inhibition of human HDAC4 using Boc-Lys(acetyl)-AMC as fluorogenic substrate measured after 1 hr by flourescence plate reader method
A549 [4] = test: cells; assay type: functional; conditions: Homo sapiens, time 48 hrs
Description: Antiproliferative activity against human A549 cells assessed as inhibition of cell proliferation incubated for 48 hrs by CCK8 assay

[5] = molecular target: T3, Class 1 histone deacetylase (Homo sapiens) (UniProt Q13547+O15379+Q92769+Q9BY41); test: Inhibition of class 1 HDAC in human K562 cells assessed as increase in histone H4 acetylation at 10 uM measured after 8 hrs by Western blot analysis; assay type: cell-based
A549 [6] = test: Antitumor activity against human A549 cells xenografted in BALB/c mouse assessed as reduction in tumor volume when administered intratumorally for 21 days; assay type: functional; conditions: dose 0.75-1.5 mg, route it(Intratumoral), time 21.0 day
[7] = Acute toxicity in po dosed BALB/c mouse assessed as lethal dose; assay type: organism-based; conditions: in vivo
[8] = molecular target: T3, Class 1 histone deacetylase (Homo sapiens); test: Inhibition of class 1 HDAC in human A549 cells assessed as increase in histone H3/H4 acetylation measured after 24 hrs by Immunofluorescent assay; assay type: cell-based

Histone deacetylase 4, sequence (P56524 whole entry): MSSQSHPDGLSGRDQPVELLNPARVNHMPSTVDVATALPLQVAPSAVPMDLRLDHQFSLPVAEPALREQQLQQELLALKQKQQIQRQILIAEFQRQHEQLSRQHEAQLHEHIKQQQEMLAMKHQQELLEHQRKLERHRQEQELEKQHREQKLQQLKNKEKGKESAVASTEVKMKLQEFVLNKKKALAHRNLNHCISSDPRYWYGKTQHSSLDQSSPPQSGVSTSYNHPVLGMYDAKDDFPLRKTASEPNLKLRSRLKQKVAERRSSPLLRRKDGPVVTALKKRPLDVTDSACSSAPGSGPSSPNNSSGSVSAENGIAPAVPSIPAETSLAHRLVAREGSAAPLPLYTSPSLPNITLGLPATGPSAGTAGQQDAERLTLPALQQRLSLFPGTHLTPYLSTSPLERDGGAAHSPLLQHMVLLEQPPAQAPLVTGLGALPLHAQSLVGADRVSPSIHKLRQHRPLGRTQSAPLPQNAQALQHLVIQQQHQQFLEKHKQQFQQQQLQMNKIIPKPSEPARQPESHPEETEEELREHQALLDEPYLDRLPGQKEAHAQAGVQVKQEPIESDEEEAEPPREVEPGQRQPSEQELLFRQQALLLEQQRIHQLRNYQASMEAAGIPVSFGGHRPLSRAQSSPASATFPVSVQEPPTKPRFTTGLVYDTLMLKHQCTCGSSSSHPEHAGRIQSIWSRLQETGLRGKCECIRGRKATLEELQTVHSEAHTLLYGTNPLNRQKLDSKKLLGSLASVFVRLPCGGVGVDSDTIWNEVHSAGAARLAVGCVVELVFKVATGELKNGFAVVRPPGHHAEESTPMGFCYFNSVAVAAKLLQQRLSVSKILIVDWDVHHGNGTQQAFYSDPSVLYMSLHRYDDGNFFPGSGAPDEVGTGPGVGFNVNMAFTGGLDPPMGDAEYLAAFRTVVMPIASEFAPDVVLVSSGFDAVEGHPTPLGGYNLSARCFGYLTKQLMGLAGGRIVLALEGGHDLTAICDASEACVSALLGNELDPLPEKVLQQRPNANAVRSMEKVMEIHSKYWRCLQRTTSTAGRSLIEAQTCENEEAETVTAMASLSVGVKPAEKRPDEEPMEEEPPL
Histone deacetylase 5, sequence (Q9UQL6 whole entry): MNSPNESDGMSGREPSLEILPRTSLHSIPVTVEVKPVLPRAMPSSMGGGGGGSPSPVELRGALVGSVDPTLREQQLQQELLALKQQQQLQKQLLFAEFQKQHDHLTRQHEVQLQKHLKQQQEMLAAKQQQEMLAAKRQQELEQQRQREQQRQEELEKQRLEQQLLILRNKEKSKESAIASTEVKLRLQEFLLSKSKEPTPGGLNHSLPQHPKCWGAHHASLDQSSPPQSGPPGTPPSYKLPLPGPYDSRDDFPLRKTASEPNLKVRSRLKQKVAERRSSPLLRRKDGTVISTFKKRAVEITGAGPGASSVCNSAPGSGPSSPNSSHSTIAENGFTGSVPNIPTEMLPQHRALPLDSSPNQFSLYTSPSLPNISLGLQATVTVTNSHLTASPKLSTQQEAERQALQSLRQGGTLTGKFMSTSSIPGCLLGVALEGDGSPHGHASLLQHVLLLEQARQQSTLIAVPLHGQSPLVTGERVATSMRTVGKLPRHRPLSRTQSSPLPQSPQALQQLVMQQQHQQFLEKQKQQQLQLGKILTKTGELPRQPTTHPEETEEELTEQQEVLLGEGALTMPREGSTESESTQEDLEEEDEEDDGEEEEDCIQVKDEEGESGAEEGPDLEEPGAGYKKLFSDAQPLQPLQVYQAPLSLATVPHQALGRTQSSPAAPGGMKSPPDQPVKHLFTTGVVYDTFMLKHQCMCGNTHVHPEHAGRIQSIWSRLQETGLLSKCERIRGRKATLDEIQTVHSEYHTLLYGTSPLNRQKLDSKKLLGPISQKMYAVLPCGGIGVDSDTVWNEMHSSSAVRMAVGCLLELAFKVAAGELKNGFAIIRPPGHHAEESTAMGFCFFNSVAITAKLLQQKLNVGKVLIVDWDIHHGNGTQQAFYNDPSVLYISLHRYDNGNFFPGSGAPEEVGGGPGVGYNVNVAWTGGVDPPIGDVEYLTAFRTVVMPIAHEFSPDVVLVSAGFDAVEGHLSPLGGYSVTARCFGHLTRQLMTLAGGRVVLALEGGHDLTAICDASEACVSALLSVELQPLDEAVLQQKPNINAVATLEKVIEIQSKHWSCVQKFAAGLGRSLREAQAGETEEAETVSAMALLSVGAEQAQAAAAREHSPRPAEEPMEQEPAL
T3 sequence (O15379 whole entry, looked up): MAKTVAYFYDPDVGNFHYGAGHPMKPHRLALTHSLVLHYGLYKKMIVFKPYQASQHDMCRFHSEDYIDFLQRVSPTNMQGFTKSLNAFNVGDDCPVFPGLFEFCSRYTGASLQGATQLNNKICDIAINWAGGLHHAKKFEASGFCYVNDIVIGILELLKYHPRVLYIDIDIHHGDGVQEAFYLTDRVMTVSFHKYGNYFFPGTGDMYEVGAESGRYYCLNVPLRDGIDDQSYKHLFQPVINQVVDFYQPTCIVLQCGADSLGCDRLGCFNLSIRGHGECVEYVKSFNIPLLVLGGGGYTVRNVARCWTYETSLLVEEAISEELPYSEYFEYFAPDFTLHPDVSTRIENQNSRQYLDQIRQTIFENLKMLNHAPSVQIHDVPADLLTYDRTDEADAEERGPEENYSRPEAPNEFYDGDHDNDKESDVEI
T3 sequence (Q13547 whole entry, looked up): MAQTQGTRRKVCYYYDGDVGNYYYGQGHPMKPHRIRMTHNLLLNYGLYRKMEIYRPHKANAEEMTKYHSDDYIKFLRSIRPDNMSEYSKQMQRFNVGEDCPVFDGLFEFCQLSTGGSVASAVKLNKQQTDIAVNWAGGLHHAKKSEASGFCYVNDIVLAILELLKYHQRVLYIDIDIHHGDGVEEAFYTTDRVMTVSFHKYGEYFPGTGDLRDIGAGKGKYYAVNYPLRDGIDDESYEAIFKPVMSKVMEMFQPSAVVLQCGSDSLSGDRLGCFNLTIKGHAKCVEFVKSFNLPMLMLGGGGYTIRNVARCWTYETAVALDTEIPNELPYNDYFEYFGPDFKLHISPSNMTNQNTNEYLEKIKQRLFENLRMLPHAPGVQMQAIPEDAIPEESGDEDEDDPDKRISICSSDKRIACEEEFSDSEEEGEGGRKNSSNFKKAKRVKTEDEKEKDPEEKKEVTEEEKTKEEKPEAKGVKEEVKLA
T3 sequence (Q92769 whole entry, looked up): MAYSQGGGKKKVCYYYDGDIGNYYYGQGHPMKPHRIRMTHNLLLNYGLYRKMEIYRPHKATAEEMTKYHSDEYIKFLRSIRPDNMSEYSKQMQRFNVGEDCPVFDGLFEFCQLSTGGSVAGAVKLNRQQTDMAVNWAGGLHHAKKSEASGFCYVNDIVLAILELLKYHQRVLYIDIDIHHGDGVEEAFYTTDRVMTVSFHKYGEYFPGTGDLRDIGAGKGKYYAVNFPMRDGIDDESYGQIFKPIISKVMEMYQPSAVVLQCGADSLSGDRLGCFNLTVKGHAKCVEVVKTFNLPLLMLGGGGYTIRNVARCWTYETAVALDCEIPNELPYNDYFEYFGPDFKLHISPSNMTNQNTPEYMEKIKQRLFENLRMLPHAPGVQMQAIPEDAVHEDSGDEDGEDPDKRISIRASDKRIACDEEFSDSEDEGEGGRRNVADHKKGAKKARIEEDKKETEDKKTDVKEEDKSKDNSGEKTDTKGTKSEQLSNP
T3 sequence (Q9BY41 whole entry, looked up): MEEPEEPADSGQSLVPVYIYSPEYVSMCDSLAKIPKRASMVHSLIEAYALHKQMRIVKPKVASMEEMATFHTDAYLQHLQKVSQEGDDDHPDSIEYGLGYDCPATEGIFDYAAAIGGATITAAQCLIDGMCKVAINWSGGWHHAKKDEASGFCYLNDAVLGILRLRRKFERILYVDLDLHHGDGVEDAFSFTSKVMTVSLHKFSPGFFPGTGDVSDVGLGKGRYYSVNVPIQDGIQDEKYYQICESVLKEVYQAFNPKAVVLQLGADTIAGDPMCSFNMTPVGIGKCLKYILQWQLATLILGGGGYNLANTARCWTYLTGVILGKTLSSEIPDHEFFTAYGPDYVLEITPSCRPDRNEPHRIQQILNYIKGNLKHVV

Row | inhibition [2] | GI50 (HeLa) | GI50 (K562) | IC50 (Histone deacetylase 7) | IC50 (Histone deacetylase) | GI50 (HepG2) | IC50 (Histone deacetylase 5) | IC50 (Histone deacetylase 4) | GI50 (A549 [4]) | inhibition [5] | Compound | half-life [1] | half-life [3] | Activity (A549 [6]) | LD50 [7] | inhibition [8]
1 | Active | 4.3 µM | 2 µM | > 0.2 µM | 0.0724 µM | 4.5 µM | > 0.2 µM | > 0.2 µM | 5.3 µM | Active | O=C(CCCSC[C@H](NC(=O)OCc1ccccc1)C(=O)Nc1cccc2ccccc12)NO | 3.96 min | < 1 min | – | – | –
2 | Active | 3.8 µM | 1.7 µM | > 0.2 µM | 0.0751 µM | 7.3 µM | > 0.2 µM | > 0.2 µM | 3.5 µM | Active | O=C(CCCSC[C@H](NC(=O)OCc1ccccc1)C(=O)Nc1ccccc1)NO | – | – | – | – | –

Row | Compound | inhibition [2] | GI50 (HeLa) | GI50 (K562) | IC50 (Histone deacetylase 7) | IC50 (Histone deacetylase) | GI50 (HepG2) | IC50 (Histone deacetylase 5) | IC50 (Histone deacetylase 4) | GI50 (A549 [4]) | inhibition [5] | half-life [1] | half-life [3] | Activity (A549 [6]) | LD50 [7] | inhibition [8]
3 | O=C(CCCSC[C@H](NC(=O)c1ccccc1)C(=O)Nc1ccccc1)NO | Active | 4.1 µM | 1.4 µM | > 0.2 µM | 0.0527 µM | 6.2 µM | > 0.2 µM | > 0.2 µM | 4.7 µM | Active | 34.8 min | 22.6 min | Dose-dependent effect | > 2000 mg/kg | Dose-dependent effect
